Reference: patent US10640492B2, “Tubulin inhibitor” (SHENZHEN NEPTUNUS PHARMACEUTICAL RESEARCH INSTITUTE CO., …, priority 2016, dated 2020)

How the values were obtained:
[1] = system: drug-resistant MES-SA cells (p-glycoprotein induced); assay: Inhibitory effect on tumor proliferation, drug-resistant MES-SA transplanted tumor; format: in vivo; conditions: drug-resistant MES-SA nude mice, dose that does not reduce body weight, vs blank vehicle (FIG. 1)
Protocol: MES-SA cells (derived from ATCC) were cultured in low concentration of adriamycin for a long time to maintain sufficient cell viability and induced the expression of p-glycoprotein. After culturing for 10 months, the results of induced expression were detected by WB. After successful induction, the cells were cultured for one week in adriamycin-free medium. The tumor cells with adjusted concentration were inoculated into the armpit of nude mice. The transplanted tumors were treated with different drugs when they grew to a certain volume. Different doses of different drugs were administrated to blank mice to explore the drug dose not affecting the body weight of the animals, namely the dose to be administrated to treat the animals with transplanted tumors.

[2] = system: blood flow distribution in tissues and tumor tissue; assay: Blood flow distribution of tissues and tumor; format: in vivo, nude mice; conditions: two hours after administration, same pharmacodynamic dose, vs blank vehicle
Text: In this example, the effects of drugs on blood flow distribution of different tissues and organs at the same pharmacodynamic dose were simultaneously tested.

[3] = system: HT-1080 human fibrosarcoma cell strain
Protocol: (§1) To test the cytotoxic IC50 values of 14 candidate compounds against 5 cell strains (MDA-MB-231, HT-1080, AGS, A-673 & HUVEC) using a CCK-8 test kit.
(§2) a) The compound was serially diluted with DMSO starting from 0.5 μM, using twice echelon dilution.
(§3) The logarithmic growth phase cells were collected and counted. The cells were re-suspended in complete medium, whose concentration was adjusted according to the test results of the cell density optimization, and then seeded into 96-well plates with 100 μl of the cell suspension to each well. The cells were incubated in a 37° C., 100% relative humidity, 5% CO2 incubator for 24 hours.
(§4) b) The test compound was diluted with the medium to the corresponding action concentrations set up, and added into the cells in the plates at 25 μl/well. The test compound was prepared in 9 final action concentrations, which were obtained by sequentially diluted from 500 nM using twice echelon dilution.
(§5) c) The cells were incubated in a 37° C., 100% relative humidity, 5% CO2 incubator for 72 hours.
(§6) d) The medium was removed from the cells, and a complete medium containing 10% CCK-8 was added and incubated in a 37° C. incubator for 1-4 hours.
(§7) e) After gentle shaking, the absorbance at 450 nm of the sample was measured on a SpectraMax M5 Microplate Reader, and the inhibition ratio was calculated using the absorbance at 650 nm as reference.
(§8) The inhibition ratio of the drug on tumor cell growth was calculated as follows: tumor cell growth inhibition %=[(Ac−As)/(Ac−Ab)]×100%
(§9) The IC50 curve was fitted and the IC50 value was calculated using the software Graphpad Prism 5 and using the calculation formula log(inhibitor) vs. normalized response-variable slope or log(inhibitor) vs. response-variable slope.

[4] = system: AGS human gastric adenocarcinoma cell strain
Protocol: AGS human gastric adenocarcinoma cell strain (purchased from Shanghai Cell Resource Center, Chinese Academy of Sciences)
as §2, §3, §4, §5, §6, §7, §8, §9

[5] = system: A-673 human rhabdomyosarcoma cell strain
Protocol: as §1, §2, §3, §4, §5, §6, §7, §8, §9

[6] = system: HUVEC human umbilical vein endothelial cell strain
Protocol: HUVEC human umbilical vein endothelial cell strain (purchased from ScienCell Research Laboratories, Cat #8000, Lot #11233)
as §2, §3, §4, §5, §6, §7, §8, §9

[7] = system: MDA-MB-231 human breast cancer cell strain
Protocol: as §1
MDA-MB-231 human breast cancer cell strain (purchased from Shanghai Cell Resource Center, Chinese Academy of Sciences)
as §2, §3, §4, §5, §6, §7, §8, §9

[8] = system: neutrophil count; conditions: rat, in vivo
[9] = Stability investigation (10-day accelerated stress testing)

- IC50 [3]: > 600 nM
- IC50 [4]: > 600 nM
- IC50 [5]: > 600 nM
- IC50 [6]: > 600 nM
- IC50 [7]: > 600 nM
- Content ([9]; 40° C., day 5): 97.86%
- Maximum single impurity ([9]; 40° C., day 5): 0.73 RRT: 0.58) %
- Content ([9]; 40° C., day 10): 98.36%
- Maximum single impurity ([9]; 40° C., day 10): 1.22 (RRT: 0.58) %
- Content ([9]; 60° C., day 5): 95.77%
- Maximum single impurity ([9]; 60° C., day 5): 2.84 (RRT: 0.24) %
- Content ([9]; 60° C., day 10): 93.45%
- Maximum single impurity ([9]; 60° C., day 10): 3.97 (RRT: 0.24) %
- Content ([9]; Day 0): 99.37%
- Maximum single impurity ([9]; Day 0): 0.39 (RRT: 0.58) %
Compound: C=CC(C)(C)c1[nH]cnc1/C=C1\NC(=O)[C@H](Cc2ccccc2)NC1=O [(−)phenylahistin, reference compound]
- anti-tumor proliferation effect (tumor weight) [1]: almost had no effect against tumor proliferation
- distribution of blood flow in tissues except tumor tissues [2]: did not significantly affect the distribution of blood flow in tissues except tumor tissues
- intratumoral blood flow distribution [2]: can significantly reduce the intratumoral blood flow distribution
- neutrophil count [8]: significantly lower than blank vehicle group
